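Five concentrations, 48 hours, 96-well plates. TGI is the concentration that stops growth completely.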
Columns and labels:
Test in all cases: inhibition of tumour cell growth, NCI panel, 48 h
HOP-62 NSCLC = test system: HOP-62 NSCLC
OVCAR-5 ovarian = test system: OVCAR-5 ovarian
CCRF-CEM leukemia = test system: CCRF-CEM leukemia
OVCAR-3 ovarian = test system: OVCAR-3 ovarian
IGROV1 ovarian = test system: IGROV1 ovarian
SNB-75 CNS = test system: SNB-75 CNS
U251 CNS = test system: U251 CNS
A498 renal = test system: A498 renal
CAKI-1 renal = test system: CAKI-1 renal
HCT-116 colon = test system: HCT-116 colon
NCI-H226 lung = test system: NCI-H226 lung
HOP-92 NSCLC = test system: HOP-92 NSCLC
SK-OV-3 ovarian = test system: SK-OV-3 ovarian
HS 578T breast = test system: HS 578T breast
UACC-62 melanoma = test system: UACC-62 melanoma
A549 NSCLC = test system: A549 NSCLC
SF-539 CNS = test system: SF-539 CNS
K-562 leukemia = test system: K-562 leukemia
MOLT-4 leukemia = test system: MOLT-4 leukemia
SR leukemia = test system: SR leukemia
SN12C renal = test system: SN12C renal
OVCAR-4 ovarian = test system: OVCAR-4 ovarian
HL-60(TB) leukemia = test system: HL-60(TB) leukemia
MDA-MB-231 breast = test system: MDA-MB-231 breast
NCI-H522 lung = test system: NCI-H522 lung
NCI-H460 lung = test system: NCI-H460 lung
HCT-15 colon = test system: HCT-15 colon
MDA-N = test system: MDA-N
T-47D breast = test system: T-47D breast
UO-31 renal = test system: UO-31 renal
KM12 colon = test system: KM12 colon
M14 melanoma = test system: M14 melanoma
SF-268 CNS = test system: SF-268 CNS
HCC-2998 colon = test system: HCC-2998 colon
TK-10 renal = test system: TK-10 renal
SNB-19 CNS = test system: SNB-19 CNS
RXF 393 renal = test system: RXF 393 renal
ACHN renal = test system: ACHN renal
COLO 205 colon = test system: COLO 205 colon
NCI-H23 lung = test system: NCI-H23 lung
OVCAR-8 ovarian = test system: OVCAR-8 ovarian
PC-3 prostate = test system: PC-3 prostate
EKVX NSCLC = test system: EKVX NSCLC
UACC-257 melanoma = test system: UACC-257 melanoma
MCF7 breast = test system: MCF7 breast
RPMI-8226 leukemia = test system: RPMI-8226 leukemia
SK-MEL-2 melanoma = test system: SK-MEL-2 melanoma
LOX IMVI melanoma = test system: LOX IMVI melanoma
SK-MEL-5 melanoma = test system: SK-MEL-5 melanoma
BT-549 breast = test system: BT-549 breast
SK-MEL-28 melanoma = test system: SK-MEL-28 melanoma
NCI/ADR-RES ovarian = test system: NCI/ADR-RES ovarian
HT29 colon = test system: HT29 colon
DU-145 prostate = test system: DU-145 prostate
MDA-MB-435 = test system: MDA-MB-435
786-0 renal = test system: 786-0 renal
SF-295 CNS = test system: SF-295 CNS
SW-620 colon = test system: SW-620 colon
MALME-3M melanoma = test system: MALME-3M melanoma
KM20L2 colon = test system: KM20L2 colon
DMS 273 small cell lung = test system: DMS 273 small cell lung
DMS 114 small cell lung = test system: DMS 114 small cell lung
M19-MEL melanoma = test system: M19-MEL melanoma
SNB-78 CNS = test system: SNB-78 CNS

Measured: TGI

Cc1c(C(C)C)cc(OCCO)cc1C(C)C
80 µM: MDA-MB-231 breast
74.3 µM: RPMI-8226 leukemia
56.9 µM: HL-60(TB) leukemia
70.9 µM: EKVX NSCLC
57.3 µM: SK-MEL-2 melanoma
73.8 µM: SR leukemia
38.1 µM: SK-MEL-5 melanoma
63.4 µM: LOX IMVI melanoma
36.2 µM: RXF 393 renal
93.1 µM: SN12C renal
93.3 µM: HS 578T breast
96.6 µM: A498 renal
81.1 µM: HT29 colon
96.2 µM: PC-3 prostate
63 µM: 786-0 renal
57 µM: HOP-92 NSCLC
81.5 µM: NCI-H522 lung
not listed: MALME-3M melanoma | KM20L2 colon | DMS 273 small cell lung | DMS 114 small cell lung | M19-MEL melanoma | SNB-78 CNS
> 100 µM: all other assays above

Oc1cccc(-c2nc3ccccc3s2)c1
56.2 µM: MDA-MB-231 breast
77 µM: LOX IMVI melanoma
73 µM: NCI-H226 lung
63.8 µM: IGROV1 ovarian
68.8 µM: NCI/ADR-RES ovarian
31.1 µM: MALME-3M melanoma
42.7 µM: EKVX NSCLC
60.4 µM: M14 melanoma
66 µM: CAKI-1 renal
68.7 µM: SF-268 CNS
48.6 µM: KM12 colon
51 µM: NCI-H522 lung
56.8 µM: T-47D breast
86.7 µM: SF-295 CNS
44.4 µM: HS 578T breast
98.7 µM: MDA-N
61.8 µM: SNB-75 CNS
51.5 µM: OVCAR-5 ovarian
42.9 µM: HT29 colon
69.6 µM: NCI-H23 lung
not listed: HCC-2998 colon | TK-10 renal | SK-MEL-5 melanoma | KM20L2 colon | DMS 273 small cell lung | DMS 114 small cell lung | M19-MEL melanoma | SNB-78 CNS
> 100 µM: all other assays above

COc1cc2oc3ccccc3c(=O)c2cc1CSc1ccccc1N
45.6 µM: CCRF-CEM leukemia
28.3 µM: SR leukemia
64.8 µM: HL-60(TB) leukemia
> 66.9 µM: UACC-62 melanoma
84 µM: KM12 colon
> 70.9 µM: NCI/ADR-RES ovarian
> 93.3 µM: HOP-62 NSCLC
8.93 µM: MDA-MB-435
98.2 µM: SK-MEL-28 melanoma
> 77.6 µM: SK-MEL-2 melanoma
29.3 µM: HCC-2998 colon
27.8 µM: T-47D breast
> 87.6 µM: RPMI-8226 leukemia
> 45.5 µM: RXF 393 renal
> 73.5 µM: A498 renal
> 68.1 µM: OVCAR-3 ovarian
> 84.9 µM: DU-145 prostate
41.1 µM: NCI-H522 lung
26.1 µM: MOLT-4 leukemia
> 79.5 µM: MALME-3M melanoma
> 95.6 µM: COLO 205 colon
> 74 µM: SK-MEL-5 melanoma
not listed: UO-31 renal | KM20L2 colon | DMS 273 small cell lung | DMS 114 small cell lung | M19-MEL melanoma | SNB-78 CNS
> 100 µM: all other assays above

COC(=O)c1c(C)oc2ccc(OC(C)=O)cc12
not listed: HOP-92 NSCLC | HS 578T breast | MDA-MB-231 breast | MDA-N | T-47D breast | PC-3 prostate | MCF7 breast | BT-549 breast | NCI/ADR-RES ovarian | DU-145 prostate | MDA-MB-435
> 100 µM: all other assays above
